The supplement of paper PMC13380429

Assays:
Details in all cases: 72 h
[1] = tested on: Caco-2; assay: cell viability relative to DMSO; higher = less toxic
[2] = tested on: HepG2; assay: as above
[3] = tested on: U2OS; assay: as above
[4] = tested on: Vero E6; assay: as above
[5] = tested on: Caco-2; assay: relative viability EC50 (midpoint between 100% and the lowest measured viability); higher = less toxic
[6] = tested on: U2OS; assay: as above
[7] = tested on: Vero E6; assay: as above
[8] = tested on: Caco-2; assay: drug sensitivity score (DSS) for viability; higher = more toxic; extreme values may be limits of the assay
[9] = tested on: HepG2; assay: as above
[10] = tested on: U2OS; assay: as above
[11] = tested on: Vero E6; assay: as above
[12] = tested on: HepG2; assay: relative viability EC50 (midpoint between 100% and the lowest measured viability); higher = less toxic
[13] = tested on: Calu-3; assay: cell viability relative to DMSO; higher = less toxic
[14] = tested on: Calu-3; assay: relative viability EC50 (midpoint between 100% and the lowest measured viability); higher = less toxic
[15] = tested on: Calu-3; assay: drug sensitivity score (DSS) for viability; higher = more toxic; extreme values may be limits of the assay

Row | Structure (SMILES) | cell viability ([1]; 1 nM) [%] | cell viability ([1]; 10 nM) [%] | cell viability ([1]; 100 nM) [%] | cell viability ([1]; 1000 nM) [%] | cell viability ([1]; 10000 nM) [%] | cell viability ([2]; 1 nM) [%] | cell viability ([2]; 10 nM) [%] | cell viability ([2]; 100 nM) [%] | cell viability ([2]; 1000 nM) [%] | cell viability ([2]; 10000 nM) [%] | cell viability ([3]; 1 nM) [%] | cell viability ([3]; 10 nM) [%] | cell viability ([3]; 100 nM) [%] | cell viability ([3]; 1000 nM) [%] | cell viability ([3]; 10000 nM) [%] | cell viability ([4]; 1 nM) [%] | cell viability ([4]; 10 nM) [%] | cell viability ([4]; 100 nM) [%] | cell viability ([4]; 1000 nM) [%] | cell viability ([4]; 10000 nM) [%] | relative viability EC50 [5] [µM] | relative viability EC50 [6] [µM] | relative viability EC50 [7] [µM] | drug sensitivity score [8] | drug sensitivity score [9] | drug sensitivity score [10] | drug sensitivity score [11] | relative viability EC50 [12] [µM] | cell viability ([13]; 1 nM) [%] | cell viability ([13]; 10 nM) [%] | cell viability ([13]; 100 nM) [%] | cell viability ([13]; 1000 nM) [%] | cell viability ([13]; 10000 nM) [%] | relative viability EC50 [14] [µM] | drug sensitivity score [15]
1 | C[C@@H](NC(=O)c1ncnc(N)c1Cl)c1ncc(C(=O)Nc2cc(C(F)(F)F)c(Cl)cn2)s1 [MLN2480] | 101 | 96.4 | 103 | 103 | 91.5 | 102 | 102 | 101 | 91.9 | 57 | 102 | 101 | 103 | 102 | 95.4 | 95.4 | 104 | 111 | 108 | 108 | > 10 | > 10 | > 10 | 0 | 3.5 | 0 | 0 | – | – | – | – | – | – | – | –
2 | O=C(Nc1ccncc1)c1cc([N+](=O)[O-])ccc1Cl | 102 | 86.1 | 97.9 | 96.3 | 85.5 | 103 | 91.3 | 105 | 86 | 99.4 | 99.5 | 104 | 99.7 | 106 | 93.2 | 102 | 97.3 | 89.4 | 88 | 93.1 | > 10 | > 10 | > 10 | 0 | 0 | 0 | 0.9 | > 10 | – | – | – | – | – | – | –
3 | COc1ccccc1N1CCN(CCN(C(=O)C2CCCCC2)c2ccccn2)CC1 | 99.1 | 101 | 93.5 | 102 | 94 | – | – | – | – | – | 95.6 | 99.6 | 102 | 100 | 95.5 | 104 | 102 | 104 | 97.2 | 99.1 | > 10 | > 10 | > 10 | 0 | – | 0 | 0 | – | 93.6 | 86.7 | 99 | 92.2 | 84.3 | > 10 | 0
4 | O=C(O)C(O)Cc1ccc(O)c(O)c1 (configuration not stated) [sodium-danshensu] | – | – | – | – | – | 99.5 | 121 | 99.8 | 92 | 104 | 95 | 96.2 | 96.3 | 94.8 | 87.7 | 101 | 102 | 103 | 95.7 | 97.6 | – | > 10 | > 10 | – | 0 | 0 | 0 | > 10 | – | – | – | – | – | – | –
5 | Cc1ccc(S(=O)(=O)Nc2ccc3c(c2)c(C(=O)C(F)(F)F)cn3CC(=O)N[C@@H](CC(C)C)C(=O)O)cc1 [NTRC-824] | 94.7 | 103 | 95 | 102 | 89.7 | – | – | – | – | – | 102 | 109 | 102 | 102 | 95.3 | 96.9 | 98.1 | 100 | 94.7 | 95.4 | > 10 | > 10 | > 10 | 0 | – | 0 | 0 | – | 88.4 | 101 | 94.2 | 102 | 93.5 | > 10 | 0
6 | CC(C)(Sc1cc(C(C)(C)C)c(O)c(C(C)(C)C)c1)Sc1cc(C(C)(C)C)c(O)c(C(C)(C)C)c1 [probucol] | 104 | 96.3 | 106 | 102 | 102 | – | – | – | – | – | 104 | 96.1 | 101 | 96.2 | 98.7 | 100 | 101 | 106 | 98.1 | 97.8 | > 10 | > 10 | > 10 | 0 | – | 0 | 0 | – | 98.6 | 106 | 99.9 | 103 | 96 | > 10 | 0
7 | CC[C@H](c1ccc(O)cc1)[C@@H](CC)c1ccc(O)cc1 [hexestrol] | 104 | 97.4 | 98.2 | 95 | 101 | 92.7 | 96.2 | 93.2 | 109 | 116 | 97.4 | 95.2 | 96.7 | 95.7 | 100 | 94 | 100 | 92.2 | 99 | 108 | > 10 | > 10 | > 10 | 0 | 0 | 0 | 0 | > 10 | – | – | – | – | – | – | –
8 | Cc1cc(C)c(NC(=O)N(Cc2ccc3c(c2)Cc2ccccc2-3)C2CCCCCC2)c(C)c1 [YM-750] | 98.6 | 100 | 96.6 | 100 | 55 | 96.2 | 93.5 | 103 | 92.9 | 59.8 | 97.8 | 99.8 | 94.8 | 94.6 | 79.9 | 96.9 | 98.1 | 91.9 | 101 | 88.3 | – | > 10 | > 10 | 2.3 | 3.2 | 1 | 0 | – | 94.1 | 95.3 | 84.9 | 85.6 | 83.3 | > 10 | 2.4
9 | Cc1cccc(Nc2ccncc2S(=O)(=O)NC(=O)NC(C)C)c1 [torasemide] | 102 | 112 | 96.7 | 103 | 96.2 | – | – | – | – | – | – | – | – | – | – | 105 | 101 | 102 | 99.2 | 103 | > 10 | – | > 10 | 0 | – | – | 0 | – | 100 | 100 | 96.5 | 110 | 85.6 | > 10 | 0.1
